Results published in US10392422B2, “Macrocyclic broad spectrum antibiotics” (priority 2014, dated 2019).
Converted amounts (≈) assume the structure as drawn. Where two headings read alike, the source gives them in different places.

How the values were obtained:
Experiment in all cases: MIC, broth micro-dilution technique (CLSI)
[1] = tested on: Escherichia coli MC4100 harboring the IMP4213; assay type: cell-based; conditions: 35° C., 22 hours; for MIC: Escherichia coli, 22 h
Method in brief: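 Susceptibility is tested by broth micro-dilution per CLSI, using ten serial 2-fold dilutions beginning at 64 μg/ml or, in a modified version, 4 μg/mL. The E. coli MC4100 strain carries an imp allele raising outer-membrane permeability.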

[2] = tested on: Methicillin Resistant Staphylococcus aureus strain USA 300 (NRS384); assay type: cell-based; conditions: for MIC: Staphylococcus aureus, 22 h, read-out: MIC (μg/mL) S. aureus
Method in brief: (§1)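 CLSI broth microdilution in cation-adjusted Mueller Hinton broth with 0.002% v/v Tween-80. Compounds were serially 2-fold diluted over 10 concentrations from 64 μg/ml, or from 4 μg/mL in a modified protocol; inoculum at final OD600 0.0005, incubated 35° C for 22 hours.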

MRSA COL (NRS100) = assay type: cell-based, Staphylococcus aureus; conditions: for MIC: Staphylococcus aureus, 22 h, read-out: MIC (μg/mL) (COL)
Method in brief: as §1

[3] = Table 2 modified protocol: serial 2-fold dilutions starting from 4 μg/mL
[4] = Table 2 modified protocol: serial 2-fold dilutions starting from 4 μg/mL, 35° C., 22 hours
[5] = Table 1 protocol: serial 2-fold dilutions starting from 64 μg/ml, 35° C., 22 hours
[6] = read-out: MIC (μg/mL) E. coli, Table 2 modified protocol: serial 2-fold dilutions starting from 4 μg/mL

SMILES	MIC (μg/mL) E. coli [1, 3]	MIC (μg/mL) S. aureus [2, 4]	MIC (μg/mL) (COL) (MRSA COL (NRS100); [4])	MIC [1, 6]	other results
CCCCCCCCCCS(=O)(=O)N[C@@H](CCCCN)C(=O)N(C)[C@@H]1C(=O)N[C@@H](C)C(=O)N[C@H](C(=O)N[C@@H](C)C(C)=O)Cc2ccc(OCCN)c(c2)-c2cc1ccc2OCCN.O=CO [Compound 256]	>4 µg/mL	0.063 µg/mL	0.016 µg/mL	–	–
CCCCCCCCCCS(=O)(=O)N[C@@H](CCCCN)C(=O)N(C)[C@@H]1C(=O)N[C@@H](C)C(=O)N[C@H](C(=O)N[C@@H](C)C(=O)c2nnn[nH]2)Cc2ccc(OCCN)c(c2)-c2cc1ccc2OCCN.O=CO [Compound 258]	4 µg/mL	0.047 µg/mL	0.012 µg/mL	–	–
CCCCCCCCS(=O)(=O)N[C@@H](CO)C(=O)N(C)[C@@H]1C(=O)N[C@@H](C)C(=O)N[C@H](C(=O)N[C@@H](C)C(C)=O)Cc2ccc(OCCN)c(c2)-c2cc1ccc2OCCN.O=CO [Compound 259]	>4 µg/mL	0.75 µg/mL	0.38 µg/mL	–	–
CCCCCCCCCC(=O)N[C@@H](CCSC)C(=O)N(C)[C@@H]1C(=O)N[C@@H](C)C(=O)N[C@H](C(=O)N[C@@H](C)C(C)=O)Cc2ccc(OCCN)c(c2)-c2cc1ccc2OCCN.O=CO [Compound 261]	>4 µg/mL	1.5 µg/mL	0.38 µg/mL	–	–
CCCCCCCCCC(=O)N[C@@H](CC[S+](C)[O-])C(=O)N(C)[C@@H]1C(=O)N[C@@H](C)C(=O)N[C@H](C(=O)N[C@@H](C)C(C)=O)Cc2ccc(OCCN)c(c2)-c2cc1ccc2OCCN (stereo partly drawn) [Compound 262]	>4 µg/mL	>4 µg/mL	2 µg/mL (≈ 2.3 µM)	–	–
CCCCCCCCCC(=O)N[C@@H](CO)C(=O)N(C)[C@@H]1C(=O)N[C@@H](C)C(=O)N[C@H](C(=O)N[C@@H](C)C(C)=O)Cc2ccc(OCCN)c(c2)-c2cc1ccc2OCCN.O=CO [Compound 264]	>4 µg/mL	2 µg/mL	0.75 µg/mL	–	–
CCCCCCCCCC(=O)N[C@@H](CO)C(=O)N(C)[C@@H]1C(=O)N[C@@H](C)C(=O)N[C@H](C(=O)N[C@@H](C)C(=O)c2nnn[nH]2)Cc2ccc(OCCN)c(c2)-c2cc1ccc2OCCN.O=CO [Compound 265]	4 µg/mL	1 µg/mL	0.25 µg/mL	–	–
CCCCCCCCCC(=O)N[C@@H](CC(N)=O)C(=O)N(C)[C@@H]1C(=O)N[C@@H](C)C(=O)N[C@H](C(=O)N[C@@H](C)C(C)=O)Cc2ccc(OCCN)c(c2)-c2cc1ccc2OCCN.O=CO [Compound 266]	>4 µg/mL	4 µg/mL	1.5 µg/mL	–	–
CCCCCCCCCC(=O)NCC(=O)N(C)[C@@H]1C(=O)N[C@@H](C)C(=O)N[C@H](C(=O)N[C@@H](C)C(C)=O)Cc2ccc(OCCN)c(c2)-c2cc1ccc2OCCN.O=CO [Compound 267]	>4 µg/mL	1.5 µg/mL	0.5 µg/mL	–	–
CCCCCCCCCCNCCC(=O)N(C)[C@@H]1C(=O)N[C@@H](C)C(=O)N[C@H](C(=O)N[C@@H](C)C(C)=O)Cc2ccc(OCCN)c(c2)-c2cc1ccc2OCCN.O=CO [Compound 268]	2.5 µg/mL	2.1 µg/mL	1 µg/mL	–	–
CCCCCCCCCCNCC(=O)N(C)[C@@H]1C(=O)N[C@@H](C)C(=O)N[C@H](C(=O)N[C@@H](C)C(C)=O)Cc2ccc(OCCN)c(c2)-c2cc1ccc2OCCN.O=CO [Compound 269]	>4 µg/mL	0.38 µg/mL	0.13 µg/mL	–	–
CCCCCCCCCCNCCC(=O)N[C@@H](CCCCN)C(=O)N(C)[C@@H]1C(=O)N[C@@H](C)C(=O)N[C@H](C(=O)N[C@@H](C)C(C)=O)Cc2ccc(OCCN)c(c2)-c2cc1ccc2OCCN.O=CO [Compound 270]	–	–	–	–	MIC (μg/mL) E. coli ([1]; Table 1 protocol: serial 2-fold dilutions starting from 64 μg/ml): 8 µg/mL; MIC (μg/mL) S. aureus [2, 5]: 0.25 µg/mL; MIC (μg/mL) (COL) (MRSA COL (NRS100); [5]): 0.063 µg/mL
CCCCCCCCCCNCCC(=O)N[C@@H](CCCCN)C(=O)N(C)[C@@H]1C(=O)N[C@@H](C)C(=O)N[C@H](C(=O)N[C@@H](C)C(=O)c2nnn[nH]2)Cc2ccc(OCCN)c(c2)-c2cc1ccc2OCCN.O=CO [Compound 271]	4 µg/mL	0.047 µg/mL	0.016 µg/mL	–	–
CCCCc1ccc(-c2ccc(C(=O)N[C@@H](CCCCN)C(=O)N(C)[C@@H]3C(=O)N[C@@H](C)C(=O)N[C@H](C(=O)N[C@@H](C)C(C)=O)Cc4ccc(OCCN)c(c4)-c4cc3ccc4OCCN)cc2)cc1 [Compound 272]	–	–	–	0.25 µg/mL (≈ 0.268 µM)	MIC [2, 4]: 0.13 µg/mL (≈ 0.139 µM); MIC (MRSA COL (NRS100); [4]): 0.063 µg/mL (≈ 0.0675 µM)
C[C@@H]1NC(=O)[C@@H](N(C)C(=O)[C@H](CCCCN)NC(=O)c2ccc(-c3ccc(Cl)cc3)cc2)c2ccc(OCCN)c(c2)-c2cc(ccc2OCCN)C[C@@H](C(=O)N[C@@H](C)C(=O)c2[nH]ncc2[N+](=O)[O-])NC1=O [Compound 273]	4 µg/mL (≈ 3.97 µM)	0.75 µg/mL (≈ 0.744 µM)	0.38 µg/mL (≈ 0.377 µM)	–	–
C[C@@H]1NC(=O)[C@@H](N(C)C(=O)[C@H](CCCCN)NC(=O)c2ccc(-c3ccc(Cl)cc3)cc2)c2ccc(OCCN)c(c2)-c2cc(ccc2OCCN)C[C@@H](C(=O)N[C@@H](C)C(=O)c2[nH]ncc2N)NC1=O [Compound 274]	–	–	–	4 µg/mL (≈ 4.09 µM)	MIC [2, 4]: > 4 µg/mL; MIC (MRSA COL (NRS100); [4]): 1.5 µg/mL (≈ 1.53 µM)
C[C@@H]1NC(=O)[C@@H](N(C)C(=O)[C@H](CCCCN)NC(=O)c2ccc(-c3ccc(Cl)cc3)cc2)c2ccc(OCCN)c(c2)-c2cc(ccc2OCCN)C[C@@H](C(=O)N[C@@H](C)C(=O)c2nc(Cl)n[nH]2)NC1=O [Compound 275]	–	–	–	2 µg/mL (≈ 2 µM)	MIC [2, 4]: 1 µg/mL (≈ 1 µM); MIC (MRSA COL (NRS100); [4]): 0.13 µg/mL (≈ 0.13 µM)
C[C@@H]1NC(=O)[C@@H](N(C)C(=O)[C@H](CCCCN)NC(=O)c2ccc(-c3ccc(Cl)cc3)cc2)c2ccc(OCCN)c(c2)-c2cc(ccc2OCCN)C[C@@H](C(=O)N[C@@H](C)C(=O)c2c([N+](=O)[O-])cnn2C)NC1=O [Compound 276]	4 µg/mL (≈ 3.91 µM)	4 µg/mL (≈ 3.91 µM)	1.5 µg/mL (≈ 1.47 µM)	–	–
C[C@@H]1NC(=O)[C@@H](N(C)C(=O)[C@H](CCCCN)NC(=O)c2ccc(-c3ccc(Cl)cc3)cc2)c2ccc(OCCN)c(c2)-c2cc(ccc2OCCN)C[C@@H](C(=O)N[C@@H](C)C(=O)N2CCC[C@H]2C(N)=O)NC1=O [Compound 277]	–	–	–	–	MIC ([1]; read-out: MIC (μg/mL) E. coli, Table 1 protocol: serial 2-fold dilutions starting from 64 μg/ml): 2 µg/mL (≈ 1.98 µM); MIC [2, 5]: 0.75 µg/mL (≈ 0.743 µM); MIC (MRSA COL (NRS100); [5]): 0.25 µg/mL (≈ 0.248 µM)
C[C@@H]1NC(=O)[C@@H](N(C)C(=O)[C@H](CCCCN)NC(=O)c2ccc(-c3ccc(C(C)(C)C)cc3)cc2)c2ccc(OCCN)c(c2)-c2cc(ccc2OCCN)C[C@@H](C(=O)O)NC1=O [Compound 278]	–	–	–	0.031 µg/mL (≈ 0.0359 µM)	MIC [2]: 0.25 µg/mL (≈ 0.289 µM); MIC (MRSA COL (NRS100)): 0.094 µg/mL (≈ 0.109 µM)
C[C@@H]1NC(=O)[C@@H](N(C)C(=O)[C@H](CCCCN)NC(=O)c2ccc(-c3ccc(C(F)(F)F)cc3)cc2)c2ccc(OCCN)c(c2)-c2cc(ccc2OCCN)C[C@@H](C(=O)O)NC1=O [Compound 279]	–	–	–	0.25 µg/mL (≈ 0.285 µM)	MIC [2]: 2 µg/mL (≈ 2.28 µM); MIC (MRSA COL (NRS100)): 0.5 µg/mL (≈ 0.571 µM)
C[C@@H]1NC(=O)[C@@H](N(C)C(=O)[C@H](CCCCN)NC(=O)c2ccc(-c3cc(Cl)cc(Cl)c3)cc2)c2ccc(OCCN)c(c2)-c2cc(ccc2OCCN)C[C@@H](C(=O)O)NC1=O [Compound 280]	–	–	–	0.25 µg/mL (≈ 0.285 µM)	MIC [2]: 0.75 µg/mL (≈ 0.855 µM); MIC (MRSA COL (NRS100)): 0.38 µg/mL (≈ 0.433 µM)
C[C@@H]1NC(=O)[C@@H](N(C)C(=O)[C@H](CCCCN)NC(=O)c2ccc(/C=C/c3ccccc3)cc2)c2ccc(OCCN)c(c2)-c2cc(ccc2OCCN)C[C@@H](C(=O)O)NC1=O [Compound 281]	–	–	–	0.25 µg/mL (≈ 0.3 µM)	MIC [2]: 3 µg/mL (≈ 3.6 µM); MIC (MRSA COL (NRS100)): 1 µg/mL (≈ 1.2 µM)
C[C@@H]1NC(=O)[C@@H](N(C)C(=O)[C@H](CCCCN)NC(=O)c2cccc(-c3ccc(Cl)cc3)c2)c2ccc(OCCN)c(c2)-c2cc(ccc2OCCN)C[C@@H](C(=O)O)NC1=O [Compound 282]	–	–	–	1 µg/mL (≈ 1.19 µM)	MIC [2]: > 4 µg/mL; MIC (MRSA COL (NRS100)): 2 µg/mL (≈ 2.37 µM)
C[C@@H]1NC(=O)[C@@H](N(C)C(=O)[C@H](CCCCN)NC(=O)c2ccc(-c3ccccc3Cl)cc2)c2ccc(OCCN)c(c2)-c2cc(ccc2OCCN)C[C@@H](C(=O)O)NC1=O [Compound 283]	–	–	–	1 µg/mL (≈ 1.19 µM)	MIC [2]: 4 µg/mL (≈ 4.75 µM); MIC (MRSA COL (NRS100)): 1.5 µg/mL (≈ 1.78 µM)
C[C@@H]1NC(=O)[C@@H](N(C)C(=O)[C@H](CCCCN)NC(=O)c2ccccc2-c2ccc(Cl)cc2)c2ccc(OCCN)c(c2)-c2cc(ccc2OCCN)C[C@@H](C(=O)O)NC1=O [Compound 284]	–	–	–	> 4 µg/mL	MIC [2]: > 4 µg/mL; MIC (MRSA COL (NRS100)): > 4 µg/mL
C[C@@H]1NC(=O)[C@@H](N(C)C(=O)[C@H](CCCCN)NC(=O)c2ccc(Oc3ccc(Cl)cc3)cc2)c2ccc(OCCN)c(c2)-c2cc(ccc2OCCN)C[C@@H](C(=O)O)NC1=O [Compound 285]	–	–	–	0.25 µg/mL (≈ 0.291 µM)	MIC [2]: 2 µg/mL (≈ 2.33 µM); MIC (MRSA COL (NRS100)): 0.5 µg/mL (≈ 0.582 µM)
